# Measurements from patent US20250289897A1, “LEPTIN RECEPTOR AGONISTIC ANTIBODY AS MONO OR COMBO THERAPIES TO TREAT OBESITY” (ELI LILLY AND COMPANY, priority 2024, published 2025).
# Tests used:
# cyno-LEPR = test: STAT3-luciferase reporter assay in HEK293-STAT3Luc-cmLepR2 cells; type: cell-based, Macaca fascicularis
# Text: (§1) LEPR is a cell surface single-pass transmembrane receptor. Activation of LEPR leads to phosphorylation of intracellular STAT3 (pSTAT3) and subsequent target gene transcription. To measure LEPR activation by anti-LEPR antibodies in the present disclosure, five independent STAT-luciferase reporter cell lines were established by introducing DNA plasmids encoding full-length LEPR of different species and STAT3-luciferase reporter gene into HEK293 cells (Table 4). […]
# (§2) Before plating the cells for luciferase assays, the poly-D-Lysine coated 96-well plates (Corning Inc, #354651) were rinsed once with phosphate buffered solution (PBS). […] Cell lysing and One-Glo luciferase substrate solution (Promega, #E6120) were then added to each well, and relative luciferase units (RLUs) were measured on a ClarioStar plate reader. For each reporter cell line, positive control LEPR activation was calculated as the average RLUs stimulated by 20 nM recombinant human leptin protein (SEQ ID NO:27) minus the average RLUs of unstimulated cells and was set as maximum LEPR activation (100%). […]
# human LEPR = target: T1, human LEPR (Homo sapiens, UniProt P48357); test: STAT3-luciferase reporter assay in HEK293-STAT3Luc-hLepR1 cells; type: cell-based
# T1 construct: introducing DNA plasmids encoding full-length LEPR of different species and STAT3-luciferase reporter gene into HEK293 cells; expressed in transfected cells; host or cells: HEK293 (HEK293-STAT3Luc-hLepR1)
# T1 sequence (P48357 22-1165): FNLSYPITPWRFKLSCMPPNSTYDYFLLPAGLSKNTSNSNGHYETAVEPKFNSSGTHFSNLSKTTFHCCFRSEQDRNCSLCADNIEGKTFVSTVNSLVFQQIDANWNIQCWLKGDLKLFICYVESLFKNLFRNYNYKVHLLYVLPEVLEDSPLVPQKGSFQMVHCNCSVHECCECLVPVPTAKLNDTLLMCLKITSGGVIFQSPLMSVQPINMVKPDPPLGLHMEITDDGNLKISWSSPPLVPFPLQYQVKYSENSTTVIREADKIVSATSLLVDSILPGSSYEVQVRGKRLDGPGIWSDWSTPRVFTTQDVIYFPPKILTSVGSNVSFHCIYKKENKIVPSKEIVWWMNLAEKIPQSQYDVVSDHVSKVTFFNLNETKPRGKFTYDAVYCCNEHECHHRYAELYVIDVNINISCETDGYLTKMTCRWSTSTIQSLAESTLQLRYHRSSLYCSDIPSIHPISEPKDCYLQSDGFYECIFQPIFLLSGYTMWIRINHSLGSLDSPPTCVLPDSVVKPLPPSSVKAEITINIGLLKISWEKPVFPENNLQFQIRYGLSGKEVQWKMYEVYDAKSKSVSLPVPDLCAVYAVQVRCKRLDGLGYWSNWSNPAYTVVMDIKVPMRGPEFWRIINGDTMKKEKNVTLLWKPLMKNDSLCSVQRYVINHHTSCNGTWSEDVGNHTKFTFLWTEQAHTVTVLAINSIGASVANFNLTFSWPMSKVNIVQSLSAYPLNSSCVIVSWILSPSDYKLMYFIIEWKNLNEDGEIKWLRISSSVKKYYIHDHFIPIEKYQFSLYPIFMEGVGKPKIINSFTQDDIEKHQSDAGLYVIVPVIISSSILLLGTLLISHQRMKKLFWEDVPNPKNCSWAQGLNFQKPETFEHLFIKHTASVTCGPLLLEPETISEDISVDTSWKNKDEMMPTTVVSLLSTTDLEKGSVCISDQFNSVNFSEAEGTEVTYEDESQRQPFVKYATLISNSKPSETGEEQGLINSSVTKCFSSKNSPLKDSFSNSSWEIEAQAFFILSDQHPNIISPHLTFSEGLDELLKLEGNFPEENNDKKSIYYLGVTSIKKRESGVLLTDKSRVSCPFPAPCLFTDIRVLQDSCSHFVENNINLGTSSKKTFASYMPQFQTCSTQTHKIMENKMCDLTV
# Text: as §1, §2
# [1] = STAT3-luciferase, 20 hours, read-out: EC50 (nM) ± SEM
# [2] = top of fitted curve vs response to 20 nM recombinant human leptin
substance,measurement,setting,value
"human leptin: recombinant human leptin protein (SEQ ID NO:27), positive control",EC50,cyno-LEPR; [1],0.674 ± 0.11 nM
same,Agonism (%) ± SEM,cyno-LEPR; [2],106.34%
same,EC50,human LEPR; [1],0.0491 ± 0.0044 nM
same,Agonism (%) ± SEM,human LEPR; [2],105.83%
